Results published in patent publication US20250120971A1, “NOVEL DRUG TREATMENT OF COGNITIVE IMPAIRMENTS ASSOCIATED WITH SCHIZOPHRENIA” (FLORIDA ATLANTIC UNIVERSITY BOARD OF TRUSTEES, priority 2021, published 2025).
“Also recorded” adds a separate entry of the source.

Key:
[1] = tested on: rat model of repeated stress; conditions: cited from earlier work
[2] = tested on: KET mouse model of psychosis or schizophrenia-like behavior; assay: Object recognition memory task after systemic (IP) SK channel activator; type: in vivo, mouse (male C57BL/6J); conditions: for discrimination ratio score, test session (Mdn): CyPPA 15.0 mg/kg IP 30 min pre-sample
Method: SK Drug Administration. To test the effect of the SK2 specific activator, CyPPA on long-term memory for objects, two KET groups and two SAL groups of male C57BL/6J mice were randomly assigned to receive either VEH or CyPPA (15.0 mg/kg) IP 30 min prior to the sample session of an object recognition memory task. Separate groups received CyPPA (7.5 mg/kg) IP or VEH 30 min prior to the sample session.
Arena Habituation. Mice were habituated to the arena prior to testing recognition memory. Thirty minutes prior to each arena habituation (AH) session, each mouse was restrained gently and momentarily, given a mock IP injection with a 26-gauge needle, and then placed into an empty polycarbonate cage. […] Afterwards, each mouse was returned to the polycarbonate cage and then returned to its home cage. Activity was recorded and automatically scored using Noldus Ethovision XT (version 7.0). Distance traveled was defined as the sum of recorded movement of the center point of the mouse in cm over the duration of the trial. Movement data from the AH sessions was used to match future treatment groups.
Sample Session. To examine the efficacy of activating SK channels on hippocampal long-term memory in the KET model of schizophrenia or psychosis-like cognitive deficits, an SK channel activator or vehicle (VEH, i.e., placebo) was administered to cohorts of saline (SAL) control mice or ketamine (KET)-exposed mice prior to the sample session of an object recognition task. Ten days after the final SAL or KET injection, mice received an IP injection of a SK channel activator or VEH, and then were placed individually in polycarbonate holding cages. Following a delay, the mouse was placed individually into the familiar arena for 10 min. Mice were permitted to freely explore two identical novel objects that were placed in opposite corners within the arena. […] The arena and objects were wiped down with 70% ethanol before each session to eliminate any odor cues that were present. Object exploration was defined as time (in s) that the mouse spent with its head oriented toward and within 2-3 cm of the object. The sample session ended after 10 min; at which time the mouse was returned to its home cage. Sample session behavior was video tracked via Ethovision XT and recordings were analyzed off-line to determine object exploration times for each mouse.
Test Session. Twenty-four hours following the sample session, mice were placed in a polycarbonate cage and then given a 10-min test session in the same arena as the sample session. Each mouse received a needle prick to simulate an IP injection before being placed in the polycarbonate holding cage for 30 min. For the test session, one of the previously encountered objects was replaced with a novel one (e.g., A, B, or C), as described above. To avoid place preference confounding behavioral responses, the objects were randomly replaced for the test session. The arena and objects were wiped down with 70% ethanol before each session to eliminate any odor cues that might affect behavioral responses during the test session.
Statistical Analysis. Object exploration was determined for each mouse based on the manual scoring of behavior from the recorded video files of the sample and test sessions. Scoring was done by experimenters who were blind to the treatment and group of the mice. Object memory was inferred from discrimination ratio scores, calculated for each mouse as the difference in time spent exploring the novel object minus the time spent exploring the familiar object, divided by the total time spent exploring both test objects (TNovel object−TFamiliar object/TNovel object+TFamiliar object). Discrimination ratio scores range from 1 to −1, with ratios greater than zero indicating preferential exploration of the novel object, and ratios less than zero indicating preferential exploration of the familiar object.

[3] = tested on: KET mouse model of psychosis; assay: Object recognition memory task after intrahippocampal (CA1) microinfusion; type: in vivo; conditions: KET mice; CyPPA 1 μg/μl bilateral intra-CA1 pre-sample; test 24 h later
[4] = tested on: KET mouse model of psychosis; assay: Trace fear conditioning and tone test; type: in vivo; conditions: for discrimination ratio of % freezing (trace vs CS intervals) (Mdn): CyPPA 15.0 mg/kg IP 30 min before trace fear conditioning
Method: Systemic Administration of the SK2 Activator. Two groups of KET mice and two groups of SAL mice were randomly assigned to receive either VEH or CyPPA (15.0 mg/kg) IP 30 min prior to a trace fear conditioning session.
Trace fear conditioning was performed using a MED Associates Near-Infrared Video Fear Conditioning System (Georgia, VT) composed of four identical rectangular conditioning chambers (30.5 cm by 24.1 cm by 21 cm) constructed of brushed aluminum side walls and clear Plexiglas front, back and top walls. Each chamber was illuminated by an overhead white house light and an infrared light. An audio speaker attached to the right-side wall of each chamber delivered the tone stimuli. The chamber floor was constructed of parallel stainless-steel rods (36 rods, 3.2 mm dia, 7.9 mm apart) designed for mice, and connected to a scrambled shock generator. Each conditioning chamber was housed inside a larger sound-attenuating cabinet with a ventilation fan in the right-side wall used to provide background noise. A near-infrared FireWire video camera, mounted on the left front door of each noise-attenuating cabinet, was used to acquire mouse behavior. Before each trial, the chamber floors were cleaned thoroughly with a 70% ethanol solution, then with 1% LiquiNox (White Plains, New York) to reduce olfactory cues.
Freezing responses were recorded and automatically scored during the conditioning session to assess the strength of fear memory. The automatic software program operationally defined freezing as the duration of time, greater than 0.6 s, during which fewer than 20 pixels of each video frame were detected to have changed. […] All final freezing responses were hand scored to ensure accuracy.
Trace Fear Conditioning Session. Mice received a systemic injection of CyPPA or VEH and then were placed individually into empty holding cages. Thirty min later, mice were placed individually into a distinct conditioning chamber with an odor cue. […] (FIG. 4A). Mice were removed from the chamber 60 s. after the presentation of the 8th US.
Trace Fear Memory Tone Test. To assess retention of trace fear memory after a 24-hour delay, mice received a mock IP injection before being placed in the polycarbonate cage. After 30 min, mice were placed into modified conditioning chambers and after a 60 s. delay, were presented with the identical tone CS as in the conditioning session. […] Mice were removed 30 s. after termination of the last CS. The context of chamber was modified before the tone test by installing an inverted V-shaped Plexiglas insert to change the geometry of the side walls and ceiling, a floor shield, 1% acetic acid, and lighting filter.
Statistical Analysis. […] To examine whether KET differentially influenced the perception of the aversive foot shock stimulus, an activity burst ratio was computed for each mouse by dividing the motion score for the first shock interval, 1 s, +1 s. post shock by the motion score for a 2-s interval from the initial 60 s. of the conditioning session (Mean shock/mean no shock). A two-factor (group, treatment) ANOVA, or one-way if not normally distributed, was conducted to analyze treatment differences in the mean activity burst.
Trace fear conditioning involves the imposition of a temporal gap between the termination of the CS and the onset of the aversive US stimulus. […] The strength and accuracy of this temporally guided fear memory can then be assessed during a test session, often presented 24 hours after trace conditioning. […]

Structure (SMILES)	fear memory impairments [1]	discrimination ratio, test session (Mdn) ([2]; KET mice, CyPPA 7.5 mg/kg IP 30 min pre-sample, test 24 h later)	object recognition memory vs KET mice given VEH ([2]; KET mice, CyPPA 7.5 mg/kg IP pre-sample, test 24 h later)	discrimination ratio score, test session (Mdn) ([2]; KET mice, test 24 h later)	object recognition memory vs KET mice given VEH ([2]; KET mice, CyPPA 15.0 mg/kg IP pre-sample, test 24 h later)	discrimination ratio score, test session (Mdn) ([2]; SAL control mice, test 24 h later)	object memory vs SAL mice given VEH ([2]; SAL control mice, CyPPA 15.0 mg/kg IP pre-sample)	discrimination ratio score, test session (M) [3]	discrimination ratio, test session (Mdn) [3]	object recognition memory vs KET/VEH [3]	performance during the tone test (retrieval) as stated in the Conclusions ([4]; KET mice given CyPPA vs KET mice given VEH)	discrimination ratio of % freezing (trace vs CS intervals) (Mdn) ([4]; KET mice)	temporal memory / attention in trace fear conditioning vs KET mice given VEH ([4]; KET mice, CyPPA 15.0 mg/kg IP 30 min pre-conditioning)	discrimination ratio of % freezing (trace vs CS intervals) (Mdn) ([4]; SAL mice)	conditioned freezing response vs SAL mice given VEH ([4]; SAL mice, CyPPA 15.0 mg/kg IP pre-conditioning)
CCn1c(=O)[nH]c2ccccc21 [1-EBIO]	alleviated fear memory impairments														
Cc1cc(NC2CCCCC2)nc(-n2nc(C)cc2C)n1 [CyPPA]	alleviated fear memory impairments	0.079	no rescue of KET-induced impaired object memory	0.191	rescued object recognition memory; also recorded: performed significantly better than VEH-treated KET mice; also recorded: significantly better object recognition memory performance	0.381	impaired object memory; also recorded: impaired the encoding and or consolidation of object memory	0.354	0.398	improved object recognition memory; also recorded: partial, albeit significant, rescue of object recognition memory	performed equivalently to KET mice given VEH	0.21	rescue of the attention or learning deficit; also recorded: significantly better than that of VEH-treated KET mice; also recorded: rescued temporal memory and attention	0.13	impaired acquisition of the conditioned freezing response; also recorded: exhibited impaired freezing compared to SAL mice given VEH
